From US10647747B2, “Cyclosporin derivatives and uses thereof” (S&T Global Inc., priority 2010, dated 2020)
Read-outs that look alike come from different tables or passages of the source. *1 amine or outer side, *2 acyl side, *3 side chain or, on linkers, in order; H or OH if unused. Where a SMILES comes first, the peptide text is derived from it. [ ]: non-standard residue; d: D form. X12 = COc1ccc(COC(C)(C)CC(C(=O)[*:2])N(C)[*:1])cc1; X3 = CC=CCC(C)C(O)C(C(=O)[*:2])N(C)[*:1]; X7 = CN(C(SCCCN1CCOCC1)C(=O)[*:2])[*:1]; NMeL = CN[CH](CC(C)C)C(=O)O; NMeV = CN[CH](C(=O)O)C(C)C; Abu = CC[CH](N)C(=O)O

System: HCV replicon in cell line ET (luc-ubi-neo/ET), Huh7 human hepatoma
Assay: HCV subgenomic replicon assay, luciferase end point
Format: cell-based
Conditions: read-out: Antiviral activity EC50
[1] = Table 13, HCV replicon luciferase
[2] = Table 14, HCV replicon luciferase
[3] = HCV subgenomic replicon, cell line ET (luc-ubi-neo/ET) Huh7, luciferase end point

| Structure (SMILES) | EC50 [1] [nM] | EC50 [3] [nM] | also measured |
| --- | --- | --- | --- |
| CC=CCC(C)C(O)C1C(=O)NC(CC)C(=O)N(C)C(SCCCN2CCOCC2)C(=O)N(C)C(CC(C)(C)OCc2ccc(OC)cc2)C(=O)NC(C(C)C)C(=O)N(C)C(CC(C)C)C(=O)NC(C)C(=O)NC(C)C(=O)N(C)C(CC(C)C)C(=O)N(C)C(CC(C)C)C(=O)N(C)C(C(C)C)C(=O)N1C (stereo not drawn) (cyclo([X3][Abu][X7][X12]V[NMeL]AA[NMeL][NMeL][NMeV]); configuration not given here) | 280 | – | – |
| C/C=C/C[C@@H](C)[C@@H](O)[C@H]1C(=O)N[C@@H](CC)C(=O)N(C)[C@H](CSCCN(CC)CC)C(=O)N(C)[C@@H](CC(C)(C)O)C(=O)N[C@@H](C(C)C)C(=O)N(C)[C@@H](CC(C)C)C(=O)N[C@@H](C)C(=O)N[C@H](C)C(=O)N(C)[C@@H](CC(C)C)C(=O)N(C)[C@@H](CC(C)C)C(=O)N(C)[C@@H](C(C)C)C(=O)N1C (single isomer, unassigned) | – | – | EC50 (Hepatitis C virus, Huh-7, Table 14, HCV replicon luciferase): 30 nM |
| C/C=C/C[C@@H](C)[C@@H](O)[C@H]1C(=O)N[C@@H](CC)C(=O)N(C)[C@@H](CSCCN(CC)CC)C(=O)N(C)[C@@H](CC(C)(C)O)C(=O)N[C@@H](C(C)C)C(=O)N(C)[C@@H](CC(C)C)C(=O)N[C@@H](C)C(=O)N[C@H](C)C(=O)N(C)[C@@H](CC(C)C)C(=O)N(C)[C@@H](CC(C)C)C(=O)N(C)[C@@H](C(C)C)C(=O)N1C (single isomer, unassigned; isomer a) [listing 1 of 2 here] | 2120 | – | – |
| C/C=C/C[C@@H](C)[C@@H](O)[C@H]1C(=O)N[C@@H](CC)C(=O)N(C)[C@@H](CSCCN(CC)CC)C(=O)N(C)[C@@H](CC(C)(C)O)C(=O)N[C@@H](C(C)C)C(=O)N(C)[C@@H](CC(C)C)C(=O)N[C@@H](C)C(=O)N[C@H](C)C(=O)N(C)[C@@H](CC(C)C)C(=O)N(C)[C@@H](CC(C)C)C(=O)N(C)[C@@H](C(C)C)C(=O)N1C (single isomer, unassigned; isomer a) [listing 2 of 2 here] | – | – | EC50 [2]: 2120 nM |
| C/C=C/C[C@@H](C)[C@@H](O)[C@H]1C(=O)N[C@@H](CC)C(=O)N(C)[C@H](CSCCN(C)C)C(=O)N(C)[C@@H](CC(C)(C)O)C(=O)N[C@@H](C(C)C)C(=O)N(C)[C@@H](CC(C)C)C(=O)N[C@@H](C)C(=O)N[C@H](C)C(=O)N(C)[C@@H](CC(C)C)C(=O)N(C)[C@@H](CC(C)C)C(=O)N(C)[C@@H](C(C)C)C(=O)N1C (single isomer, unassigned; isomer b) [listing 1 of 2 here] | – | 130 | – |
| C/C=C/C[C@@H](C)[C@@H](O)[C@H]1C(=O)N[C@@H](CC)C(=O)N(C)[C@H](CSCCN(CC)CC)C(=O)N(C)[C@@H](CC(C)(C)O)C(=O)N[C@@H](C(C)C)C(=O)N(C)[C@@H](CC(C)C)C(=O)N[C@@H](C)C(=O)N[C@H](C)C(=O)N(C)[C@@H](CC(C)C)C(=O)N(C)[C@@H](CC(C)C)C(=O)N(C)[C@@H](C(C)C)C(=O)N1C (single isomer, unassigned; isomer b) | 30 | 90 | – |
| C/C=C/C[C@@H](C)[C@@H](O)[C@H]1C(=O)N[C@@H](CC)C(=O)N(C)[C@H](CSCCN(C)C)C(=O)N(C)[C@@H](CC(C)(C)O)C(=O)N[C@@H](C(C)C)C(=O)N(C)[C@@H](CC(C)C)C(=O)N[C@@H](C)C(=O)N[C@H](C)C(=O)N(C)[C@@H](CC(C)C)C(=O)N(C)[C@@H](CC(C)C)C(=O)N(C)[C@@H](C(C)C)C(=O)N1C (single isomer, unassigned; isomer b) [listing 2 of 2 here] | – | – | EC50 [2]: 50 nM |
| C/C=C/C[C@@H](C)[C@@H](O)[C@H]1C(=O)N[C@@H](CC)C(=O)N(C)[C@H](CSCCN(CC)CC)C(=O)N(C)[C@@H](CC(C)C)C(=O)N[C@@H](C(C)C)C(=O)N(C)[C@@H](CC(C)C)C(=O)N[C@@H](C)C(=O)N[C@H](C)C(=O)N(C)[C@@H](CC(C)C)C(=O)N(C)[C@@H](CC(C)C)C(=O)N(C)[C@@H](C(C)C)C(=O)N1C (single isomer, unassigned; isomer b) [[(S)-(2-(N,N-Diethylamino)ethylthio)methyl-Sar]-3-cyclosporin (isomer B)] | – | 160 | – |
